In assay [1] the target is T1, human IGF1R kinase domain (Homo sapiens, UniProt P08069).
T1 construct: human IGF1R precursor protein corresponding to the amino acids positions 974 through 1293; 6xHis; made in house; host or cells: SF9 insect cells, recombinant baculovirus (Bac-to-Bac System)
Kind of assay: IGF1R tyrosine phosphorylation inhibition, Alphascreen phosphotyrosine PT66 assay. In kind it is biochemical. The following applies: recombinant kinase domain, 1 hour co-incubation, 20 to 0.1 μM. As to the method:
Inhibition of IGF1R tyrosine phosphorylation was measured in the Alphascreen phosphotyrosine PT66 assay kit (Perkin Elmer Life sciences, Catalog number 6760602) according to the manufacturer's instructions. As a source of enzymatically active IGF1r kinase for this assay, SF9 insect cells were infected with recombinant baculovirus (Bac-to-Bac System, Invitrogen, Carlsbad, Calif.) encoding 6×His-tagged kinase domain portion of human IGF1R precursor protein corresponding to the amino acids positions 974 through 1293 (Abbott et al., 1992, J. Biol. Chem. 267:10759-10763) and recombinant kinase protein was purified to homogeneity using two-step chromatography on immobilized Ni^2+ resin (Ni-NTA) and ion-exchange Q-Sepharose column. Biotinylated poly glu-tyr 4:1 (CIS bio-international, catalog number 61GT0BLA) was used for the kinase substrate. Compounds were serially diluted to give a concentration range from 20 to 0.1 μM and co-incubated with IGF1r kinase, biotinylated peptide substrate and alphascreen components for 1 hour and then read in a Perkin-Elmer alphafusion plate reader. A plot of counts per minute versus log concentration of compounds was fitted to a sigmoidal dose response curve using Graphpad Prism software to generate IC50 values (see FIG. 1 for an example).

The test system of assay [2] is MCF7 human breast tumor cells. As to the kind of experiment: CellTiter-Glo luminescent cell viability assay, MCF7. The following applies: 48 hours, 20 to 0.1 μM. In kind it is cell-based. The protocol:
(§1) Cell viability of either MCF7 human breast tumor cells (American Type Culture Collection catalog #HTB 22) or NCI-H929 human plasmacytoma cells (ATCC catalog #CRL-9068) was assessed using the Promega CellTiter-Glo luminescent cell viability assay according to manufacturer's instructions. In brief, cells were plated at 10,000 cells per well in a clear bottom white 96 well microtiter plate (Costar catalog #3604) in 100 μL of cell growth medium. Compounds were then added to the cells to give final concentrations of compound ranging from 20 to 0.1 μM. Cells were incubated 48 hours after which 100 μL per well of celltiter-glo reagent was added and luminescence was measured in a BMG polarstar plate luminometer. A plot of counts per minute versus log concentration of compounds was fitted to a sigmoidal dose response curve using Graphpad Prism software to generate IC50 values.

For assay [3], the system named is NCI-H929 human plasmacytoma cells. As to the kind of experiment: CellTiter-Glo luminescent cell viability assay, NCI-H929. In kind it is cell-based. The following applies: 48 hours, 20 to 0.1 μM. As to the method:
as §1
(ATP-based viability assays read luminescence as a measure of living cells.)

Assay [4] deals with T2, recombinant TrkA kinase domain (Homo sapiens, UniProt P04629).
T2 construct: commercial preparation of recombinant TrkA kinase domain; purchased Upstate Cell Signaling 14-571
Kind of assay: TrkA tyrosine kinase activity inhibition, Alphascreen phosphotyrosine PT66 assay. In kind it is biochemical. The following applies: compounds 10 to 0.005 μM, 1 hour incubation. The protocol: Inhibition of TrkA tyrosine kinase activity was measured using the Alphascreen phosphotyrosine PT66 assay kit (Perkin Elmer Life Sciences, Catalog Number 6760602) according to the manufacturer's instructions. As a source of enzymatically active TrkA kinase for this assay, the commercial preparation of recombinant TrkA kinase domain (Upstate Cell Signaling, Catalog Number 14-571) was used. Biotinylated poly Glu-Tyr 4:1 (CIS bio-international, catalog number 61GT0BLA) was used for the kinase substrate. Compounds were serially diluted to give a concentration range from 10 to 0.005 μM and co-incubated with TrkA kinase, biotinylated peptide substrate and Alphascreen kit components for 1 hour and then read in a Perkin-Elmer Alpha Fusion plate reader. A plot of counts per minute versus log concentration of compounds was fitted to a sigmoidal dose response curve using Graphpad Prism software to generate IC50 values.
A general note: In Alpha technology, singlet oxygen from a donor bead excites a nearby acceptor bead.

T1 sequence (P08069 974-1293): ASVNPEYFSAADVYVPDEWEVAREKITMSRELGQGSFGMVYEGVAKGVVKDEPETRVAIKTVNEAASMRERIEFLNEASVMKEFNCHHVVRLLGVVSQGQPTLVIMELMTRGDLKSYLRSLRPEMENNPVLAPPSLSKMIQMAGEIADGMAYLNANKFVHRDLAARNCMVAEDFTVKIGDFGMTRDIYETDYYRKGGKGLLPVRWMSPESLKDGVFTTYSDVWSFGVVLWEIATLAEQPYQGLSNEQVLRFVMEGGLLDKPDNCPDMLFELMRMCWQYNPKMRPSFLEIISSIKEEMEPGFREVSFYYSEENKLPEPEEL
T2 sequence (P04629 510-781 limits assumed): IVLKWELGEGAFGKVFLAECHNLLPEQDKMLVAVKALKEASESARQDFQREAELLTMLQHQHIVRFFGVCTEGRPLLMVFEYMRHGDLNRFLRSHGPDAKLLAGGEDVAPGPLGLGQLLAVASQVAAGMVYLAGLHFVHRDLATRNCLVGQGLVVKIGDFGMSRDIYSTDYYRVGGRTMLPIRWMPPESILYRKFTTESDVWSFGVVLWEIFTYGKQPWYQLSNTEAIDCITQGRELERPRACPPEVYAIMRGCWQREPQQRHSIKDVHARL

For `CC1CCN(CCc2ccc(NC(=O)c3cn(-c4cccc(-c5ccc(N(C)C)cc5)n4)nc3N)cc2)CC1`, the IC50 (usually the concentration needed to halve the response being measured) in assay [1] was not above 5 µM; in assay [2], 5 to 10 µM; in assay [3], 5 to 10 µM. Consider `CCN(CC)CCOc1ccc(NC(=O)c2cn(-c3ncc4c(n3)-c3ccccc3OC4)nc2N)cc1`, for which the figures for the IC50 in assay [1] and in assay [3] were not above 5 µM and more than 25 µM, respectively. Take `CN1CCN(CCc2ccc(NC(=O)c3cn(-c4nccc(-c5ccc(N(C)C)cc5)n4)nc3N)cc2)CC1`: the IC50 in assay [1] is not above 5 µM; in assay [2], 10 to 15 µM; in assay [3] it was 5 to 10 µM. Regarding `COc1ccc2c(c1)CCc1cnc(-n3cc(C(=O)NCCc4c[nH]c5ccccc45)c(N)n3)nc1-2`, the results for the IC50 in assay [1], in assay [2] and in assay [3] were not above 5 µM, 5 to 10 µM and more than 25 µM, respectively.

Consider `COc1ccc2c(c1)CCc1cnc(-n3cc(C(=O)NCc4nc5ccccc5[nH]4)c(N)n3)nc1-2`, for which the results for the IC50 in assay [1], in assay [2] and in assay [3] were not above 5 µM, 5 to 10 µM and 5 to 10 µM, respectively. As for `COc1ccc2c(c1)CCc1cnc(-n3cc(C(=O)Nc4ccc(/C=C/CN5CCN(C)CC5)cc4)c(N)n3)nc1-2`, the IC50 in assay [1] was not above 5 µM; in assay [2], 10 to 15 µM; in assay [3], 5 to 10 µM. In the same order, the values of `COc1ccc2c(c1)CCc1cnc(-n3cc(C(=O)NC4CCN(CCCc5ccncc5)CC4)c(N)n3)nc1-2` are not above 5 µM, 5 to 10 µM and not above 5 µM.

Take `CN1CCN(CCc2ccc(NC(=O)c3cn(-c4ncc5c(n4)-c4cc(Cl)ccc4OC5)nc3N)cc2)CC1`: the IC50 in assay [1] is not above 5 µM; in assay [2], 10 to 15 µM; in assay [3], 5 to 10 µM. Regarding `COc1ccc2c(c1)CCc1cnc(-n3cc(C(=O)Nc4ccc(CCN5CCC(N)CC5)cc4)c(N)n3)nc1-2`, the values for the IC50 in assay [1] and in assay [2] were not above 5 µM and more than 25 µM, respectively.

With `COc1ccc2c(c1)CCc1cnc(-n3cc(C(=O)Nc4ccc(CCN5CCN6CCC[C@H]6C5)cc4)c(N)n3)nc1-2`, the IC50 in assay [1] is not above 5 µM; in assay [2] it was 10 to 15 µM; in assay [3], 5 to 10 µM. For the compound `CN1CCN(Cc2ccc(NC(=O)c3ccc4[nH]c(-c5cc(Br)ccc5O)nc4c3)cc2)CC1`, the IC50 is not above 5 µM in assay [1] and 10 to 15 µM in assay [2]. For `CN1CCN(c2ccc(NC(=O)c3ccc4nc(-c5ccc6ccccc6c5O)[nH]c4c3)cc2)CC1`, the results for the IC50 in assay [1], in assay [2] and in assay [3] were not above 5 µM, 10 to 15 µM and 5 to 10 µM, respectively. For `COc1ccc2c(c1)CCc1cnc(-n3cc(-c4nc5cc(N6CCN(C)CC6)ccc5[nH]4)c(N)n3)nc1-2`, in that order: not above 5 µM, 10 to 15 µM and 5 to 10 µM. As for `CN1CCN(CCc2ccc(NC(=O)c3ccc4nc(-c5nc6ccccc6[nH]5)[nH]c4c3)cc2)CC1`, the figures for the IC50 in assay [1], in assay [2] and in assay [3] were not above 5 µM, more than 25 µM and 5 to 10 µM, respectively. Consider `CN1CCN(c2ccc3nc(-c4nc5ccccc5[nH]4)[nH]c3c2)CC1`, for which the IC50 was not above 5 µM in assay [1], 10 to 15 µM in assay [2] and 10 to 15 µM in assay [3]. For `CN1CCN(c2ccc3nc(-c4cc(-c5ccc(N(C)C)cc5)ccc4O)[nH]c3c2)CC1`, the IC50 in assay [1] was not above 5 µM; in assay [2], 10 to 15 µM; in assay [3], 5 to 10 µM. In the same order, the values of `COc1ncccc1-c1ccc(O)c(-c2nc3ccc(C(=O)Nc4ccc(CCN5CCN(C)CC5)cc4)cc3[nH]2)c1` are not above 5 µM, 5 to 10 µM and not above 5 µM. For `CN1CCN(c2ccc3nc(-c4cc(-c5ccccc5)ccc4O)[nH]c3c2)CC1`, in that order: not above 5 µM, more than 25 µM and 10 to 15 µM. As for `CN1CCN(CCc2ccc(NC(=O)c3ccc4nc(-c5cc(-c6cccnc6O)ccc5O)[nH]c4c3)cc2)CC1`, the IC50 in assay [4] lay within 0.02 to 0.2 µM. Same read-out and setting: the value for `COc1ncccc1-c1ccc(O)c(-c2nc3cc(C(=O)NCc4ccc(CN5CCN(C)CC5)cc4)ccc3[nH]2)c1` was more than 0.2 µM; that for `COc1ncccc1-c1ccc(O)c(-c2nc3ccc(C(=O)NC4CCCC(N)C4)cc3[nH]2)c1` (stereo not drawn) was more than 0.2 µM. Same read-out and setting: the value for `COc1ncccc1-c1ccc(O)c(-c2nc3ccc(C(=O)NCc4ccc5c(c4)CCCN5C)cc3[nH]2)c1` was more than 0.2 µM; that for `COc1ncccc1-c1ccc(O)c(-c2nc3ccc(C(=O)NCC4CCN(Cc5ccccc5)C4)cc3[nH]2)c1` (stereo not drawn) was 0.02 to 0.2 µM. The same measure, in the same setting: the value for `COc1ncccc1-c1ccc(O)c(-c2nc3ccc(C(=O)NCCc4c[nH]cn4)cc3[nH]2)c1` was 0.02 to 0.2 µM. As to `COCCN1CCC(CNC(=O)c2ccc3nc(-c4cc(-c5cccnc5OC)ccc4O)[nH]c3c2)C1` (stereo not drawn), the IC50 in assay [4] fell in the range of 0.02 to 0.2 µM.

For `COc1ncccc1-c1ccc(O)c(-c2nc3ccc(C(=O)NCC4CCN(CCO)CC4)cc3[nH]2)c1`, in assay [4], the IC50 is less than 0.02 µM. The same measure, in the same setting: the value for `COc1ncccc1-c1ccc(O)c(-c2nc3ccc(C(=O)NCCC4CCCN4C)cc3[nH]2)c1` (stereo not drawn) was 0.02 to 0.2 µM; that for `COc1ncccc1-c1ccc(O)c(-c2nc3ccc(C(=O)NCCCN4CCCCC4C)cc3[nH]2)c1` (stereo not drawn) was less than 0.02 µM. Still for that read-out and setting: for `CCN(CC)CCCNC(=O)c1ccc2nc(-c3cc(-c4cccnc4OC)ccc3O)[nH]c2c1` the value was less than 0.02 µM. Consider `COc1ncccc1-c1ccc(O)c(-c2nc3ccc(C(=O)NCC4CCCC(CN)C4)cc3[nH]2)c1` (stereo not drawn), for which, in assay [4], the IC50 was more than 0.2 µM.

Consider `COc1ncccc1-c1ccc(O)c(-c2nc3ccc(C(=O)NCCCN4CCN(C)CC4)cc3[nH]2)c1`, for which the IC50 in assay [4] is more than 0.2 µM. The same measure, in the same setting: for `COc1ncccc1-c1ccc(O)c(-c2nc3ccc(C(=O)NCCCCCN(C)C)cc3[nH]2)c1` the value was more than 0.2 µM; for `COc1ncccc1-c1ccc(O)c(-c2nc3ccc(C(=O)Nc4ccc(OCCCN5CCN(C)CC5)cc4)cc3[nH]2)c1`, more than 0.2 µM; for `COc1ncccc1-c1ccc(O)c(-c2nc3ccc(C(=O)Nc4ccc(OCCN5CCN(C)CC5)cc4)cc3[nH]2)c1`, more than 0.2 µM.

For the compound `COc1ncccc1-c1ccc(O)c(-c2nc3ccc(C(=O)Nc4ccc(CCN5CCN(c6ccncc6)CC5)cc4)cc3[nH]2)c1`, in assay [4], the IC50 was 0.02 to 0.2 µM. Consider `COc1ncccc1-c1ccc(O)c(-c2nc3cc(C(=O)NCCc4c[nH]cn4)c(F)cc3[nH]2)c1`, for which the IC50 in assay [4] was less than 0.02 µM. On the same count and under the same terms, for `COC(=O)[C@H](Cc1c[nH]cn1)NC(=O)c1ccc2[nH]c(-c3cc(-c4cccnc4OC)ccc3O)nc2c1` the value was 0.02 to 0.2 µM; for `COc1ncccc1-c1ccc(O)c(-c2nc3cc(C(=O)N[C@@H](Cc4c[nH]cn4)C(N)=O)ccc3[nH]2)c1`, less than 0.02 µM; for `COc1ncccc1-c1ccc(O)c(-c2nc3cc(C(=O)N[C@H](CO)Cc4c[nH]cn4)ccc3[nH]2)c1`, less than 0.02 µM. Same read-out and setting: for `COc1ncccc1-c1ccc(O)c(-c2nc3cc(C(=O)N[C@@H](CO)Cc4c[nH]cn4)ccc3[nH]2)c1` the value was less than 0.02 µM; for `COc1ncccc1-c1ccc(O)c(-c2nc3cc(C(=O)N[C@@H](C)Cc4c[nH]cn4)ccc3[nH]2)c1`, more than 0.2 µM; for `O=C(NCCc1c[nH]cn1)c1cc2nc(-c3cc(-c4cccnc4O)ccc3O)[nH]c2cc1Cl`, less than 0.02 µM.

As for `CN1CCN(CCc2ccc(NC(=O)c3cc4nc(-c5cc(-c6cccnc6O)ccc5O)[nH]c4cc3Cl)cc2)CC1`, the IC50 in assay [4] lay in the range of 0.02 to 0.2 µM.

Consider `COc1cc(O)c(-c2nc3ccc(C(=O)NCCc4c[nH]cn4)cc3[nH]2)cc1-c1cccnc1OC`, for which the half-inhibitory concentration (IC50) in assay [4] was 0.02 to 0.2 µM.

Regarding `CCN1CCC2(CCN(CCc3ccc(NC(=O)c4ccc5[nH]c(-c6cc(-c7cccnc7O)ccc6O)nc5c4)cc3)C2)C1` (stereo not drawn) [drawing 1792], in assay [4], the IC50 was less than 0.02 µM.

`CN1CCCC2(CCCN(CCc3ccc(NC(=O)c4ccc5nc(-c6cc(-c7cccnc7O)ccc6O)[nH]c5c4)cc3)C2)C1` (stereo not drawn) [drawing 1793]: in assay [4], the IC50 was more than 0.2 µM. On to `COc1ncccc1-c1ccc(O)c(-c2nc3ccc(C(=O)NCCCCN4CCCC4)cc3[nH]2)c1` [drawing 1800], for which the half-inhibitory concentration (IC50) in assay [4] is less than 0.02 µM. In the case of `COc1ncccc1-c1ccc(O)c(-c2nc3ccc(C(=O)NCCCCN4CCCC4)cc3[nH]2)c1` [drawing 1807], the IC50 in assay [4] was more than 0.2 µM.
